# Reference: US20080096811A1, “[…] VPAC2 RECEPTOR PEPTIDE AGONISTS” (Eli Lilly and Company, published 2008)
# pEC50, pIC50: −log10 of the molar value. *1 amine or outer side, *2 acyl side, *3 side chain or, on linkers, in order; H or OH if unused. Where a SMILES comes first, the peptide text is derived from it. Where no end group is shown, it is not given here. Side-chain parts run from the residue outwards. The star is where a group is joined. γGlu = O=C(O)[C@H](CCC(=O)[*:2])N[*:1]; Palmitoyl = CCCCCCCCCCCCCCCC(=O)*; Propionyl = CCC(=O)*
# Experiments:
# [1] = biological target: T1, human VPAC2 (Homo sapiens, UniProt P41587); assay: Alpha screen cAMP in vitro potency, human VPAC2; format: cell-based
# T1 construct: expressed in transfected cells
# T1 sequence (P41587 24-438): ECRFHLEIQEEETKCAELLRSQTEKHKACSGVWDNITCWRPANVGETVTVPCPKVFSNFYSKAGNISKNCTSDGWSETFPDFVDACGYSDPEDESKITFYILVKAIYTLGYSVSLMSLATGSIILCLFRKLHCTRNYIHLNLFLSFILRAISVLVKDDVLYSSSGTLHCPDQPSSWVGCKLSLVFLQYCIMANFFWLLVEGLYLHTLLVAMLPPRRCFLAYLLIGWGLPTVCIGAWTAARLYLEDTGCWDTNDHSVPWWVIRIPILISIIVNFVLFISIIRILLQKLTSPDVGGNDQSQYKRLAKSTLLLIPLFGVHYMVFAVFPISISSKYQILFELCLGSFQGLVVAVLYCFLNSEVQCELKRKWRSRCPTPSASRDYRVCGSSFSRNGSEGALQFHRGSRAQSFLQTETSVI
# Method: Alpha screen: Cells are washed in the culture flask once with PBS. Then, the cells are rinsed with enzyme free dissociation buffer. The dissociated cells are removed. The cells are then spun down and washed in stimulation buffer. For each data point, 50,000 cells suspended in stimulation buffer are used. To this buffer, Alpha screen acceptor beads are added along with the stimuli. This mixture is incubated for 60 minutes. Lysis buffer and Alpha screen donor beads are added and are incubated for 60 to 120 minutes. The Alpha screen signal (indicative of intracellular cAMP levels) is read in a suitable instrument (e.g. AlphaQuest from Perlin-Elmer). Steps including Alpha screen donor and acceptor beads are performed in reduced light.
# [2] = biological target: T1, human VPAC2; assay: DiscoveRx cAMP in vitro potency, human VPAC2; format: cell-based
# Method: (§1) Also, the cells are washed twice. The cells are incubated in assay buffer plus IBMX for 15 minutes at room temperature. […] The stimuli are present for 30 minutes. Then, the assay buffer is gently removed. […] At day 3, the assay described above for the VPAC2 receptor cell line is performed.
# [3] = biological target: T2, human VPAC1 (Homo sapiens, UniProt P32241); assay: Filter binding assay, human VPAC1 membranes, 125I-labeled VIP tracer; design: expressed in transfected cells
# T2 sequence (P32241 31-457): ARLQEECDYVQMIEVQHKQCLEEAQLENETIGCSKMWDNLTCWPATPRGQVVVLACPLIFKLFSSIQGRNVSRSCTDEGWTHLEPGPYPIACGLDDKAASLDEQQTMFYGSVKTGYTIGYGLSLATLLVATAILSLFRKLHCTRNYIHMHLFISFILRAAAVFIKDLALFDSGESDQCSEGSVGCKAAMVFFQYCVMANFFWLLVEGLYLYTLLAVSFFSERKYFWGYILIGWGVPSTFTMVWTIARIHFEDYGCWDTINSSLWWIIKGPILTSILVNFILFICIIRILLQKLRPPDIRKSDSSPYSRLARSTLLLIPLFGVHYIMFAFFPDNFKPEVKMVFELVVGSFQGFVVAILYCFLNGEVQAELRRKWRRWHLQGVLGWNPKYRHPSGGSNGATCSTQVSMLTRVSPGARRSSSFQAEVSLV
# Method: (§2) For this assay, the solutions and equipment include:
# (§3) Presoak solution: 0.5% Polyethyleneamine in Aqua dest.
# (§4) Buffer for flushing filter plates: 25 mM […] pH 7.4
# (§5) Blocking buffer: 25 mM HEPES pH 7.4; 0.2% protease free BSA
# (§6) Assay buffer: 25 mM HEPES pH 7.4; 0.5% protease free BSA
# (§7) Dilution and assay plate: PS-Microplate, U form
# (§8) Filtration Plate Multiscreen FB Opaque Plate; […] Type B Glasfiber filter
# (§9) In order to prepare the filter plates, aspirate the presoak solution by vacuum filtration. Flush the plates twice with 200 μL flush buffer. Add 200 μL blocking buffer to the filter plate. The filter plate is then incubated […] for 1 hour at room temperature.
# (§10) Fill the assay plate with 25 μL assay buffer, 25 μL membranes (2.5 μg) suspended in assay buffer, 25 μL compound (agonist) in assay buffer, and 25 μL tracer (about 40000 cpm) in assay buffer. Incubate the filled plate for 1 hour with shaking.
# (§11) Conduct the transfer from assay plate to filter plate. Aspirate the blocking buffer by vacuum filtration and wash two times with flush buffer. Transfer 90 μL from the assay plate to the filter plate. Aspirate the 90 μL transferred from assay plate and wash three times with 200 μL flush buffer. Remove the plastic support. Dry for 1 hour at 60° C. Add 30 μL Microscint. Perform the count.
# [4] = biological target: T1, human VPAC2; assay: Filter binding assay, human VPAC2 membranes, 125I-labeled VIP tracer
# Method: as §2, §3, §4, §5, §6, §7, §8, §9, §10, §11
# [5] = biological target: T2, human VPAC1; assay: DiscoveRx cAMP in vitro potency, human VPAC1; format: cell-based; design: expressed in transfected cells; host or cells: CHO-PO, transient transfection (Lipofectamine)
# Method: as §1
# [6] = biological target: T3, human PAC1 (Homo sapiens, UniProt P41586); assay: cell-based
# Method: as §1
# [7] = biological target: T3, human PAC1; assay: biochemical
# Method: as §2, §3, §4, §5, §6, §7, §8, §9, §10, §11
# T3 sequence (P41586 21-468): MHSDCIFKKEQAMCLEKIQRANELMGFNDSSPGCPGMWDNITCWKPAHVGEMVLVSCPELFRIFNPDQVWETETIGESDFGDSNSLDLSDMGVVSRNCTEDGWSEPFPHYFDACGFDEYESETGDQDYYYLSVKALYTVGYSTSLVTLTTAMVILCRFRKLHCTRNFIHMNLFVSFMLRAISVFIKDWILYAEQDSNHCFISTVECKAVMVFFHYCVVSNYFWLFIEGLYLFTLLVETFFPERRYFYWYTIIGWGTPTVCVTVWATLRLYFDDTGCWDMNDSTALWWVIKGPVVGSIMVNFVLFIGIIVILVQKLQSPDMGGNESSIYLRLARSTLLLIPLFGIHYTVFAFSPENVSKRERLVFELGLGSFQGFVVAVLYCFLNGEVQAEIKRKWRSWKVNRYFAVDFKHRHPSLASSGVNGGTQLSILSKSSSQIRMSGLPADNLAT
Compound,pEC50 [1],pEC50 [2],pIC50 [3],pIC50 [4],pEC50 [5],pEC50 [6],pIC50 [7]
CCCCCCCCCCCCCCCC(=O)N[C@@H](CCC(=O)NCCCC[C@H](NC(=O)[C@@H]1CCCN1C(=O)[C@@H]1CCCN1C(=O)[C@@H]1CCCN1C(=O)[C@H](CO)NC(=O)[C@@H](NC(=O)[C@H](CCCNC(=N)N)NC(=O)[C@H](CO)NC(=O)[C@H](CC(N)=O)NC(=O)[C@H](CCCCN)NC(=O)[C@@H](NC(=O)[C@H](CO)NC(=O)[C@H](CCC(N)=O)NC(=O)[C@H](CC(C)C)NC(=O)[C@H](Cc1ccc(O)cc1)NC(=O)[C@H](CCCCN)NC(=O)[C@H](CCCCN)NC(=O)[C@H](C)NC(=O)[C@H](C)NC(=O)[C@@H](NC(=O)[C@H](CCC(N)=O)NC(=O)[C@H](CCCCN)NC(=O)[C@H](CCCNC(=N)N)NC(=O)[C@H](CC(C)C)NC(=O)[C@H](CCCNC(=N)N)NC(=O)[C@@H](NC(=O)[C@H](Cc1ccc(O)cc1)NC(=O)[C@H](CC(N)=O)NC(=O)[C@H](CC(=O)O)NC(=O)[C@@H](NC(=O)[C@H](Cc1ccccc1)NC(=O)[C@@H](NC(=O)[C@H](C)NC(=O)[C@H](CC(=O)O)NC(=O)[C@H](CO)NC(=O)[C@H](Cc1c[nH]cn1)NC(=O)CC)C(C)C)[C@@H](C)O)[C@@H](C)O)C(C)C)[C@@H](C)CC)[C@@H](C)O)C(N)=O)C(=O)O [Agonist P95] (Propionyl-HSDAVFTDNYTRLRKQVAAKKYLQSIKNSRTSPPPK([γGlu-Palmitoyl])-NH2),9.62,9.35,6.69,7.67,–,–,–
Ac-HSDAVFTDNYTRLRKQVAAKKYLQSIKNSRTSPPP-NH2 [Agonist P32],9.49,9.19,7.42,9.05,8.08,6.90,–
HSDAVFTDNYTRLRKQVAAKKYLQSIKNSRTSPPP-NH2 [Agonist P5],8.82,8.92,7.25,9.17,8.96,7.52,6.63
